Measured values reported in US10285983B2, “3-(1H-pyrrolo[2,3-B]pyridin-2-yl)-1H-pyrazolo[3,4-B] pyridines and therapeutic uses thereof” (Samumed, LLC, priority 2015, dated 2019).

Key:
Format in all cases: cell-based
[1] = tested on: Wnt activity (Sp5-Luc reporter, SW480 colon carcinoma cells); assay: Wnt activity screening assay, Sp5-Luc reporter gene in SW480 cells; details: Homo sapiens; for inhibition at 10 µM: given for EC50 >10 μM, read-out: percent inhibition at 10 μM; for EC50: overnight incubation
Description: The screening assay for Wnt activity is described as follows. Reporter cell lines can be generated by stably transducing cancer cell lines (e.g., colon cancer) or primary cells (e.g., IEC-6 intestinal cells) with a lentiviral construct that includes a Wnt-responsive promoter driving expression of the firefly luciferase gene.
SW480 colon carcinoma cells were transduced with a lentiviral vector expressing luciferase with a human Sp5 promoter consisting of a sequence of eight TCF/LEF binding sites. SW480 cells stably expressing the Sp5-Luc reporter gene and a hygromycin resistance gene were selected by treatment with 150 μg/mL of hygromycin for 7 days. These stably transduced SW480 cells were expanded in cell culture and used for all further screening activities. Each compound was dissolved in DMSO as a 10 mM stock and used to prepare compound source plates. Serial dilution (1:3, 10-point dose-response curves starting from 10 μM) and compound transfer was performed using the ECHO 550 (Labcyte, Sunnyvale, Calif.) into 384-well white solid bottom assay plates (Greiner Bio-One) with appropriate DMSO backfill for a final DMSO concentration of 0.1%. For Sp5-Luc reporter gene assays, the cells were plated at 4,000 cells/well in 384-well plates with medium containing 1% fetal bovine serum and incubated overnight at 37° C. and 5% CO2. Following incubation, 20 μl of BrightGlo luminescence reagent (Promega) was added to each well of the 384-well assay plates. The plates were placed on an orbital shaker for 2 min and then luminescence was quantified using the Envision (Perkin Elmer) plate reader. Readings were normalized to DMSO only treated cells, and normalized activities were utilized for EC50 calculations using the dose-response log (inhibitor) vs. response—variable slope (four parameters) nonlinear regression feature available in GraphPad Prism 5.0 (or Dotmatics). For EC50 of >10 μM, the percent inhibition at 10 μM is provided.

[2] = tested on: SW480 colon cancer cells; assay: Cell viability assay (CellTiter-Blue); details: Homo sapiens, 96 h, four days; for inhibition at 10 µM: given for EC50 >10 μM, read-out: percent inhibition at 10 μM
Experimental: Representative compounds were screened using the following assay procedure to assess the effect on cell viability as described below.
Each compound was dissolved in DMSO as a 10 mM stock and used to prepare compound source plates. Serial dilution (1:3, 8-point dose-response curves from 10 μM to 0.0045 μM) and compound transfer was performed using the ECHO 550 (Labcyte, Sunnyvale, Calif.) into 96-well clear bottom, black-walled plates (Corning-Costar).
Approximately 2×10^3 SW480 colon cancer cells were seeded into each well and allowed to incubate in the presence or absence of compound for four days at 37° C./5% CO2. Eight replicates of DMSO-treated cells served as controls and cells treated with compound were performed in duplicate.
After incubation, 20 μL of CellTiter-Blue (Promega) was added to each well allowed to incubate for approximately 3 hours. This reagent was a buffered solution which contains resazurin, metabolically active cells were able to reduce rezarurin (blue) into resorufin (pink) which was highly fluorescent. This measured fluorescence was used as a readout for cell viability.
After incubation, the plates were read at Ex 560 nm Em 590 nm (Cytation 3, BioTek). Dose-response curves were generated and EC50 concentration values were calculated using non-linear regression curve fit in the GraphPad Prism (San Diego, Calif.) or Dotmatics' Studies Software (Bishops Stortford, UK). For EC50 of >10 μM, the percent inhibition at 10 μM is provided.

[3] = tested on: primary human fibroblasts derived from IPF patients (LL29 cells); assay: Inhibition of fibrotic process, αSMA staining in TGF-β1 treated LL29 fibroblasts; details: Fibroblast, 96 h, TGF-β1 20 ng/mL, 4 days; for EC50: % αSMA positive cells; for inhibition at 10 µM: given for EC50 >10 μM, read-out: percent inhibition at 10 μM
Description: Representative compounds were screened using primary human fibroblasts (derived from IPF patients) treated with TGF-β1 to determine their ability to inhibit the fibrotic process.
Primary human fibroblasts derived from IPF patients (LL29 cells) [^1Xiaoqiu Liu, et. al., “Fibrotic Lung Fibroblasts Show Blunted Inhibition by cAMP Due to Deficient cAMP Response Element-Binding Protein Phosphorylation”, Journal of Pharmacology and Experimental Therapeutics (2005), 315(2), 678-687; ^2Watts, K. L., et. al., “RhoA signaling modulates cyclin D1 expression in human lung fibroblasts; implications for idiopathic pulmonary fibrosis”, Respiratory Research (2006), 7(1), 88] were obtained from American Type Culture Collection (ATCC) and expanded in F12 medium supplemented with 15% Fetal Bovine Serum and Penicillin/Streptomycin.
Each compound was dissolved in DMSO as a 10 mM stock and used to prepare compound source plates. Serial dilution (1:2, 11-point dose-response curves from […] to […]) and compound transfer was performed using the ECHO 550 (Labcyte, Sunnyvale, Calif.) into 384-well clear bottom assay plates (Greiner Bio-One) with appropriate DMSO backfill for a final DMSO concentration of 0.1%. LL29 cells are plated at 1,500 cells/well in 80 μL/well F12 medium supplemented with 1% Fetal Bovine Serum. One hour after addition of the cells, TGF-β1 (Peprotech; 20 ng/mL) was added to the plates to induce fibrosis (ref. 1 and 2 above). Wells treated with TGF-β1 and containing DMSO were used as controls. Cells were incubated at 37° C. and 5% CO2 for 4 days. Following incubation for 4 days, SYTOX green nucleic acid stain (Life Technologies [Thermo Fisher Scientific]) was added to the wells at a final concentration of 1 μM and incubated at room temperature for 30 min. Cells were then fixed using 4% formaldehyde (Electron Microscopy Sciences), washed 3 times with PBS followed by blocking and permeabilization using 3% Bovine Serum Albumin (BSA; Sigma) and 0.3% Triton X-100 (Sigma) in PBS. Cells were then stained with antibody specific to α-smooth muscle actin (αSMA; Abcam) (ref. 1 and 2 above) in 3% Bovine Serum Albumin (BSA; Sigma) and 0.3% Triton X-100 (Sigma) in PBS, and incubated overnight at 4° C. Cells were then washed 3 times with PBS, followed by incubation with Alexa Flor-647 conjugated secondary antibody (Life Technologies [Thermo Fisher Scientific]) and DAPI at room temperature for 1 hour. Cells were then washed 3 times with PBS and plates were sealed for imaging. αSMA staining was imaged by excitation at 630 nm and emission at 665 nm and quantified using the Compartmental Analysis program on the CellInsight CX5 (Thermo Scientific). Dead or apoptotic cells were excluded from analysis based on positive SYTOX green staining. % of total cells positive for αSMA were counted in each well and normalized to the average of 11 wells treated with TGF-β1 on the same plate using Dotmatics' Studies Software. The normalized averages (fold change over untreated) of 3 replicate wells for each compound concentration were used to create dose-responses curves and EC50 values were calculated using non-linear regression curve fit in the Dotmatics' Studies Software. For EC50 of >10 μM, the percent inhibition at 10 μM is provided.

Compound	EC50 [1]	EC50 [2]	inhibition at 10 µM [1]	inhibition at 10 µM [2]	EC50 [3]	inhibition at 10 µM [3]
O=C(Nc1cncc(-c2cnc3[nH]nc(-c4cc5c(-c6cccc(F)c6)ccnc5[nH]4)c3c2)c1)C1CC1 [Compound 20, N-(5-(3-(4-(3-Fluorophenyl)-1H-pyrrolo[2,3-b]pyridin-2-yl)-1H-pyrazolo [3,4-b]pyridin-5-yl)pyridin-3-yl)cyclopropanecarboxamide]	> 10 µM	> 10 µM	57.3%	51.4%	2.63 µM	
Fc1cccc(-c2ccnc3[nH]c(-c4n[nH]c5ncc(-c6ccccn6)cc45)cc23)c1 [Compound 28, 3-(4-(3-Fluorophenyl)-1H-pyrrolo[2,3-b]pyridin-2-yl)-5-(pyridin-2-yl)-1H-pyrazolo[3,4-b]pyridine]	> 10 µM	> 10 µM	15%	16.3%	> 10 µM	52%
CC(C)CC(=O)Nc1cncc(-c2cnc3[nH]nc(-c4cc5c(-c6ccc(F)cc6)ccnc5[nH]4)c3c2)c1 [Compound 30, N-(5-(3-(4-(4-Fluorophenyl)-1H-pyrrolo[2,3-b]pyridin-2-yl)-1H-pyrazolo [3,4-b]pyridin-5-yl)pyridin-3-yl)-3-methylbutanamide]	> 10 µM	> 10 µM	11.9%	18.5%	> 10 µM	12.8%
Cc1ccncc1-c1cnc2[nH]nc(-c3cc4c(-c5ccc(F)cc5)ccnc4[nH]3)c2c1 [Compound 33, 3-(4-(4-Fluorophenyl)-1H-pyrrolo[2,3-b]pyridin-2-yl)-5-(4-methylpyridin-3-yl)-1H-pyrazolo[3,4-b]pyridine]	> 10 µM	> 10 µM	2.7%	25%	4.51 µM	
Fc1ccc(-c2ccnc3[nH]c(-c4n[nH]c5ncc(-c6cncc(CN7CCCC7)c6)cc45)cc23)cc1 [Compound 42, 3-(4-(4-Fluorophenyl)-1H-pyrrolo[2,3-b]pyridin-2-yl)-5-(5-(pyrrolidin-1-ylmethyl)pyridin-3-yl)-1H-pyrazolo[3,4-b]pyridine]	> 10 µM	> 10 µM	26%	24.8%	4.98 µM	
Fc1ccc(-c2ccnc3[nH]c(-c4n[nH]c5ncc(-c6cncc(CN7CCCCC7)c6)cc45)cc23)cc1 [Compound 43, 3-(4-(4-Fluorophenyl)-1H-pyrrolo[2,3-b]pyridin-2-yl)-5-(5-(piperidin-1-ylmethyl)pyridin-3-yl)-1H-pyrazolo[3,4-b]pyridine]	> 10 µM	> 10 µM	2.8%	6.9%	> 10 µM	0%
O=C(Nc1cncc(-c2cnc3[nH]nc(-c4cc5c(-c6ccc(F)cc6)ccnc5[nH]4)c3c2)c1)C1CCCCC1 [Compound 51, N-(5-(3-(4-(4-Fluorophenyl)-1H-pyrrolo[2,3-b]pyridin-2-yl)-1H-pyrazolo [3,4-b]pyridin-5-yl)pyridin-3-yl)cyclohexanecarboxamide]	> 10 µM	> 10 µM	14.2%	17.7%	> 10 µM	1.3%

Now from value to compound, other results behind:

EC50 [1]	EC50 [2]	Compound	inhibition at 10 µM [1]	inhibition at 10 µM [2]	EC50 [3]	inhibition at 10 µM [3]
> 10 µM	> 10 µM	CCC(=O)Nc1cncc(-c2cnc3[nH]nc(-c4cc5c(-c6cccc(F)c6)ccnc5[nH]4)c3c2)c1 [Compound 1, N-(5-(3-(4-(3-Fluorophenyl)-1H-pyrrolo[2,3-b]pyridin-2-yl)-1H-pyrazolo [3,4-b]pyridin-5-yl)pyridin-3-yl)propionamide]	46.1%	9.8%	> 10 µM	0%
> 10 µM	> 10 µM	Fc1cccc(-c2ccnc3[nH]c(-c4n[nH]c5ncc(-c6cccnc6)cc45)cc23)c1 [Compound 4, 3-(4-(3-Fluorophenyl)-1H-pyrrolo[2,3-b]pyridin-2-yl)-5-(pyridin-3-yl)-1H-pyrazolo[3,4-b]pyridine]	7.6%	17.5%	2.72 µM	
> 10 µM	0.643 µM	O=C(Nc1cncc(-c2cnc3[nH]nc(-c4cc5c(-c6cccc(F)c6)ccnc5[nH]4)c3c2)c1)c1ccccc1 [Compound 11, N-(5-(3-(4-(3-Fluorophenyl)-1H-pyrrolo[2,3-b]pyridin-2-yl)-1H-pyrazolo [3,4-b]pyridin-5-yl)pyridin-3-yl)benzamide]	10%		0.32 µM	
> 10 µM	> 10 µM	CN(C)Cc1cncc(-c2cnc3[nH]nc(-c4cc5c(-c6cccc(F)c6)ccnc5[nH]4)c3c2)c1 [Compound 13, 1-(5-(3-(4-(3-Fluorophenyl)-1H-pyrrolo[2,3-b]pyridin-2-yl)-1H-pyrazolo [3,4-b]pyridin-5-yl)pyridin-3-yl)-N,N-dimethylmethanamine]	22.6%	11.6%	> 10 µM	5.2%
> 10 µM	> 10 µM	Fc1cccc(-c2ccnc3[nH]c(-c4n[nH]c5ncc(-c6ccncc6)cc45)cc23)c1 [Compound 18, 3-(4-(3-Fluorophenyl)-1H-pyrrolo[2,3-b]pyridin-2-yl)-5-(pyridin-4-yl)-1H-pyrazolo[3,4-b]pyridine]	11.7%	23.2%	1.45 µM	
